Legend:
Format in all cases: cell-based
[1] = test system: sulfate reducing bacteria (SRB), Desulfovibrio longus; assay: Biocidal efficacy at room temperature, sulfate reducing bacteria (SRB); settings: for minimum dose needed to achieve 3-log reduction in bacteria levels: SRB, anaerobic PBS, ppm glutaraldehyde equivalent, tested 200 to 12 ppm; for activity against SRB (in words): compared with glutaraldehyde
Protocol: (§1) Assay for Biocidal Efficacy at Room Temperature: Glutaraldehyde and Compounds 1 and 4 are tested for biocidal activity against a pool of aerobic organisms at room temperature and against sulfate reducing bacteria (SRB) at room temperature. Tests are performed as follows:
(§2) a. Stock preparation. Glutaraldehyde (50% in water) and Compounds 1 and 4 are each dissolved in DMSO to a concentration of 200 mM, which is equivalent to 20,000 ppm of free glutaraldehyde.
(§3) b. Aerobic Bacteria—a mixed pool of 6 bacterial species at approximately 5×10^6 CFU/mL in phosphate buffered saline is distributed into a 96-well plate. Each well receives an independent chemical treatment of the tested compounds at concentrations ranging from 200 ppm to 12 ppm glutaraldehyde. A control treatment of DMSO alone is also included. Each condition is tested in triplicate. After set periods of incubation (1, 4, and 24 h), the number of surviving cells in each well are enumerated by dilution to extinction in a medium containing resazurin dye as an indicator. c. Sulfate Reducing Bacteria (SRB)—SRB testing is performed as for the aerobic bacteria with the following modifications: the species Desulfovibrio longus is tested in anaerobic PBS and the enumeration of surviving cells is performed in a medium containing soluble iron as an indicator. d. Results: Values indicate minimum the dose needed (in ppm) to achieve 3-log reduction in bacteria levels. “n/a” indicates the threshold is not met at any of the tested doses. “N.D.” indicates no data available.

[2] = test system: pool of aerobic organisms (mixed pool of 6 bacterial species); assay: Biocidal efficacy at room temperature, aerobic bacteria; settings: for minimum dose needed to achieve 3-log reduction in bacteria levels: aerobic bacteria, ppm glutaraldehyde equivalent, tested 200 to 12 ppm
Protocol: as §1, §2, §3

[3] = test system: Thermus thermophilus (ATCC 27634); assay: Biocidal efficacy at elevated temperature; settings: for log kill of treated bacterial populations relative to an untreated control: 50 ppm glutaraldehyde equivalent
Protocol: Compound 1 is dissolved in DMSO to yield a 200 mM solution such that the glutaraldehyde-equivalent concentration of the stock solution is 20,000 ppm. The bacterial strain Thermus thermophilus (ATCC 27634) is maintained at 70° C. After 24-48 hours of growth, 10 mL of bacterial culture is harvested by spinning in a Beckman-Coulter benchtop centrifuge at 3000 rpm for 15 min. The cell pellet is resuspended in 100 mL of phosphate-buffered saline (PBS) to give approximately 5×10^5 CFU/mL and aliquoted into 10 mL portions in glass test tubes fitted with screw caps. Samples are equilibrated to 37, 55, or 70° C. for 30 min and then treated with glutaraldehyde or Compound 1 at 50 ppm glutaraldehyde equivalent. The treated samples are returned to their respective equilibration temperatures for 4 h and then enumerated for surviving bacteria. After 24 h, the process is repeated by adding fresh grown bacteria to the samples to re-challenge the biocide. The samples are again enumerated after 4 h. Results are reported in terms of log kill of treated bacterial populations relative to an untreated control at each temperature. For values listed as “>x,” actual kill may have been higher but could not be detected by this assay.

[4] = 37 C., 24 hr (re-challenge with fresh bacteria, enumerated after 4 h)
[5] = 55 C., 24 hr (re-challenge with fresh bacteria, enumerated after 4 h)
[6] = 70 C., 24 hr (re-challenge with fresh bacteria, enumerated after 4 h)

| Compound | minimum dose needed to achieve 3-log reduction in bacteria levels ([1]; 1 hour incubation) | minimum dose needed to achieve 3-log reduction in bacteria levels ([1]; 4 hours incubation) | minimum dose needed to achieve 3-log reduction in bacteria levels ([1]; 24 hours incubation) | minimum dose needed to achieve 3-log reduction in bacteria levels ([2]; 1 hour incubation) | minimum dose needed to achieve 3-log reduction in bacteria levels ([2]; 4 hours incubation) | minimum dose needed to achieve 3-log reduction in bacteria levels ([2]; 24 hours incubation) | log kill of treated bacterial populations relative to an untreated control ([3]; 37 C., 4 hr) | log kill of treated bacterial populations relative to an untreated control [3, 4] | log kill of treated bacterial populations relative to an untreated control ([3]; 55 C., 4 hr) | log kill of treated bacterial populations relative to an untreated control [3, 5] | log kill of treated bacterial populations relative to an untreated control ([3]; 70 C., 4 hr) | log kill of treated bacterial populations relative to an untreated control [3, 6] | activity against SRB (in words) [1] | biocidal activity against aerobic bacteria (in words) [2] | activity compared with glutaraldehyde (in words) ([3]; at each temperature tested (37, 55, 70 C.)) |
| --- | --- | --- | --- | --- | --- | --- | --- | --- | --- | --- | --- | --- | --- | --- | --- |
| O=CCCCC=O [glut, Glutaraldehyde, reference compound] | 89 ppm | 18 ppm | <12 ppm | 26 ppm | 26 ppm | 26 ppm | >3 | >4 | >3 | >3 | >4 | >4 | – | – | – |
| CN1CCOC1CCCC1OCCN1C (centres unmarked) [Compound 4, 1,3-bis(3-methyloxazolidin-2-yl)propane] | 200 ppm | 133 ppm | – | – | 200 ppm | 200 ppm | – | – | – | – | – | – | some activity | limited activity | – |
| CN1CCC(c2ccccc2)OC1CCCC1OC(c2ccccc2)CCN1C (centres unmarked) [Compound 1, 1,3-bis(3-methyl-6-phenyl-1,3-oxazinan-2-yl)propane] | 133 ppm | 133 ppm | – | 59 ppm | 26 ppm | 40 ppm | >3 | >4 | >3 | >3 | >4 | >4 | some activity | significant biocidal activity | equivalent activity to glutaraldehyde |

From patent US9550740B2, “Antimicrobial compounds” (Dow Global Technologies LLC, priority 2012, dated 2017)
